Laboratory results published in PubChem BioAssay (NCI).
Where “and” joins values, the source holds several entries; their conditions need not be identical. Equal values may be shown once.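 Dose response: 5 concentrations. Exposure: 48 h. Format: 96-well plates. Endpoint: linear interpolation; highest concentration if not reached. At the GI50, growth is halved. TGI denotes the concentration required for complete inhibition of growth.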

Assays:
Assay in all cases: NCI tumour cell line growth inhibition, 48 h
[1] = test system: RPMI-8226 leukemia
[2] = test system: NCI-H460 lung
[3] = test system: SR leukemia
[4] = test system: COLO 205 colon
[5] = test system: OVCAR-3 ovarian
[6] = test system: KM12 colon
[7] = test system: HL-60(TB) leukemia
[8] = test system: HCT-116 colon
[9] = test system: HOP-92 NSCLC
[10] = test system: HOP-62 NSCLC

COC(=O)[C@@H](C)C[C@H](Cc1ccccc1)NC(=O)c1csc([C@@H](C[C@H](C(C)C)N(C)C(=O)C2(NC(=O)[C@H]3CCCCN3C)CC2)OC(C)=O)n1
GI50 [1]: 0.000613 µM and 0.00333 µM | TGI [1]: 17 µM | GI50 [2]: 0.0111 µM and 0.00333 µM | TGI [2]: > 33.3 µM | GI50 [3]: 0.000486 µM and 0.00333 µM | TGI [3]: > 33.3 µM | GI50 [4]: 0.00346 µM | TGI [4]: 0.0644 µM | GI50 [5]: 0.000567 µM and 0.00333 µM | GI50 [6]: 0.00655 µM and 0.00333 µM | TGI [6]: > 33.3 µM | GI50 [7]: 0.000657 µM and < 0.00333 µM | TGI [7]: 0.00685 µM and < 0.00333 µM | GI50 [8]: 0.00343 µM and 0.00333 µM | TGI [8]: > 33.3 µM | GI50 [9]: 0.00434 µM and 0.00333 µM | TGI [9]: 5.29 µM | TGI [10]: > 33.3 µM

COC(=O)c1cc2oc(/C=C3\SC(=S)N(NC(C)=O)C3=O)cc2n1Cc1ccccc1
GI50 [1]: 0.758 µM | TGI [1]: 5.55 µM | GI50 [2]: 1.28 µM | TGI [2]: 37.1 µM | GI50 [3]: 1.11 µM | TGI [3]: > 50 µM | GI50 [4]: 5.63 µM | TGI [4]: 12.6 µM | GI50 [5]: 0.53 µM | TGI [5]: 2.66 µM | GI50 [6]: 2.95 µM | TGI [6]: 12.8 µM | GI50 [7]: 2.14 µM | TGI [7]: 13.8 µM | GI50 [8]: 7.62 µM | TGI [8]: 14.3 µM | GI50 [9]: 0.196 µM | TGI [9]: 2.59 µM | GI50 [10]: 9.72 µM | TGI [10]: 20.7 µM

COC(=O)C(CC(=O)Nc1ccc(Cl)c(Cl)c1)C(=O)C(=O)NC1C2CC3CC(C2)CC1C3 (stereo unspecified)
TGI [1]: > 100 µM | TGI [2]: > 100 µM | TGI [3]: > 100 µM | TGI [4]: > 100 µM | TGI [5]: > 100 µM | TGI [6]: > 100 µM | TGI [7]: > 100 µM | TGI [8]: > 100 µM | TGI [9]: > 100 µM | TGI [10]: > 100 µM

COc1ccc(/C=C/C(=O)c2cc3c(N)c(C(=O)Nc4ccccc4)sc3nc2C)cc1
GI50 [1]: 0.34 µM | TGI [1]: > 10.8 µM | GI50 [2]: 0.195 µM | GI50 [3]: 0.207 µM | TGI [3]: > 50 µM | GI50 [5]: 0.146 µM | TGI [5]: 0.791 µM | GI50 [6]: 0.204 µM | TGI [6]: 7.18 µM | GI50 [7]: 0.119 µM | TGI [7]: 0.342 µM | GI50 [8]: 0.189 µM | TGI [8]: 5.1 µM | GI50 [9]: 1.17 µM | TGI [9]: 14 µM | GI50 [10]: 0.252 µM | TGI [10]: > 22.5 µM

O=C1c2c(nc3ccccc3c2-c2ccccc2)CN1Nc1ccccc1
TGI [1]: > 100 µM | TGI [3]: > 100 µM | TGI [4]: > 100 µM | TGI [5]: > 100 µM | TGI [6]: > 100 µM | TGI [7]: > 100 µM | TGI [8]: > 100 µM | TGI [9]: > 100 µM | TGI [10]: > 100 µM

CCOC1C=CCCO1 (stereo unspecified)
TGI [1]: > 100 µM | TGI [2]: > 100 µM | TGI [3]: > 100 µM | TGI [4]: > 100 µM | TGI [5]: > 100 µM | TGI [6]: > 100 µM | TGI [7]: > 100 µM | TGI [8]: > 100 µM | TGI [9]: > 100 µM | TGI [10]: > 100 µM

COc1ccccc1/C=N/N=C(\N)NO
TGI [1]: > 100 µM | TGI [2]: > 100 µM | TGI [3]: > 100 µM | TGI [4]: > 100 µM | TGI [5]: > 100 µM | TGI [6]: > 100 µM | TGI [8]: > 100 µM | TGI [9]: 65.6 µM | TGI [10]: 76.6 µM

O=C(NCP(=O)(O)O)c1cccnc1
TGI [1]: > 100 µM | TGI [2]: > 100 µM | TGI [3]: > 100 µM | TGI [4]: > 100 µM | TGI [5]: > 100 µM | TGI [6]: > 100 µM | TGI [7]: > 100 µM | TGI [8]: > 100 µM | TGI [9]: > 100 µM | TGI [10]: > 100 µM

CNc1nc(N(C)C)nc(N(C)C)n1
GI50 [1]: > 100 µM and 1500 µM | TGI [1]: > 100 µM and 2940 µM | GI50 [2]: > 100 µM and 894 µM | TGI [2]: > 100 µM and 3000 µM | GI50 [3]: > 100 µM | TGI [3]: > 100 µM | GI50 [4]: > 100 µM and 1780 µM | TGI [4]: > 100 µM and 4010 µM | GI50 [5]: > 100 µM and 981 µM | TGI [5]: > 100 µM and 2300 µM | GI50 [6]: > 100 µM and 1450 µM | TGI [6]: > 100 µM and 3420 µM | GI50 [7]: > 100 µM and 2350 µM | TGI [7]: > 100 µM and 4200 µM | GI50 [8]: > 100 µM and 809 µM | TGI [8]: > 100 µM and 1930 µM | GI50 [9]: > 100 µM and 277 µM | TGI [9]: > 100 µM and 809 µM | GI50 [10]: > 100 µM and 970 µM | TGI [10]: > 100 µM and 1890 µM

CN(C)c1ccc(O)c2c1C[C@H]1C[C@H]3[C@H](N(C)C)C(=O)C(C(N)=O)=C(O)[C@@]3(O)C(=O)C1=C2O
GI50 [1]: 4.28 µM | TGI [1]: 31.1 µM | GI50 [2]: 3.45 µM | TGI [2]: 20.7 µM | GI50 [3]: 3.48 µM | TGI [3]: 22.3 µM | GI50 [4]: 5.51 µM | TGI [4]: 20.5 µM | GI50 [5]: 4.92 µM | TGI [5]: 39.5 µM | GI50 [6]: 6.29 µM | TGI [6]: 27.4 µM | GI50 [7]: 7.44 µM | TGI [7]: 40.4 µM | GI50 [8]: 3.86 µM | TGI [8]: 35 µM | GI50 [9]: 3.6 µM | TGI [9]: 26.9 µM | GI50 [10]: 4.01 µM | TGI [10]: 71.5 µM

CCCCCCCCCCCC[n+]1ccc(C(N)=O)cc1
GI50 [1]: 1.34 µM | TGI [1]: 4.86 µM | GI50 [2]: 3.81 µM | TGI [2]: 14.1 µM | GI50 [3]: 4.67 µM | TGI [3]: > 100 µM | GI50 [4]: 1.55 µM | TGI [4]: 2.98 µM | GI50 [5]: 2.28 µM | TGI [5]: 8.72 µM | GI50 [6]: 1.43 µM | TGI [6]: 3 µM | GI50 [8]: 4.58 µM | TGI [8]: 20.5 µM | GI50 [10]: 2.84 µM | TGI [10]: 10.2 µM

CCCN(CCC)C(=O)[C@H](CC)[C@@H]1CC[C@@H](C)[C@@H]([C@H](C)[C@@H](O)[C@@H](C)C(=O)[C@H](CC)C2O[C@]3(C=C[C@@H](O)[C@]4(CC[C@@](C)([C@H]5CC[C@](O)(CC)[C@H](C)O5)O4)O3)[C@H](C)C[C@@H]2C)O1 (stereo partly specified)
GI50 [1]: 1.77 µM | TGI [1]: 6.06 µM | GI50 [2]: 2.07 µM | TGI [2]: 4.62 µM | GI50 [3]: 2.49 µM | TGI [3]: 7.35 µM | GI50 [5]: 1.84 µM | TGI [5]: 4.46 µM | GI50 [6]: 1.86 µM | TGI [6]: 4.02 µM | GI50 [7]: 2.26 µM | TGI [7]: 5.54 µM | GI50 [8]: 2.16 µM | TGI [8]: 5.98 µM | GI50 [9]: 1.29 µM | TGI [9]: 4.24 µM | GI50 [10]: 3.33 µM | TGI [10]: 13.6 µM

Cc1cccc2c1C/C(=C1\CCc3c(C)cccc31)C2=O
TGI [2]: > 100 µM | TGI [3]: > 100 µM | TGI [4]: > 100 µM | TGI [5]: > 100 µM | TGI [6]: > 100 µM | TGI [7]: > 100 µM | TGI [8]: > 100 µM | TGI [10]: > 100 µM

CC1SC(=O)SC1C (stereo unspecified)
TGI [1]: > 100 µM | TGI [2]: > 100 µM | TGI [3]: > 100 µM | TGI [4]: > 100 µM | TGI [6]: > 100 µM | TGI [7]: > 100 µM | TGI [8]: > 100 µM | TGI [10]: > 100 µM

COc1cc(-c2oc3c(OC)c(O)c(OC)c(O)c3c(=O)c2OC)ccc1O
TGI [1]: > 100 µM | TGI [2]: > 100 µM | TGI [3]: > 100 µM | TGI [4]: > 100 µM | TGI [5]: 67.8 µM | TGI [6]: > 100 µM | TGI [7]: > 100 µM | TGI [8]: > 100 µM | TGI [10]: 61.4 µM

Cc1cccc2c1C(=O)OC2(C)c1cccc2ccccc12 (stereo unspecified)
TGI [1]: > 100 µM | TGI [2]: > 100 µM | TGI [3]: 68.7 µM | TGI [5]: 78.8 µM | TGI [6]: > 100 µM | TGI [7]: 46.2 µM | TGI [9]: 61.4 µM

NC(CCSC(F)F)C(=O)O (stereo unspecified)
TGI [2]: > 100 µM | TGI [3]: > 100 µM | TGI [4]: > 100 µM | TGI [5]: > 100 µM | TGI [6]: > 100 µM | TGI [8]: > 100 µM | TGI [9]: > 100 µM | TGI [10]: > 100 µM

COC1=CC(=O)[C@]2(C)[C@H](C1=O)C(C)[C@H]2c1ccccc1 (stereo partly specified)
TGI [1]: > 100 µM | TGI [2]: > 100 µM | TGI [3]: > 100 µM | TGI [4]: > 100 µM | TGI [5]: > 100 µM | TGI [6]: > 100 µM | TGI [7]: > 100 µM | TGI [9]: > 100 µM | TGI [10]: > 100 µM
